From patent publication US20260315446A1, “ANTIFUNGAL COMPOUNDS AND USES THEREOF” (priority 2023, published 2026)
Values after ≈ are worked out from the molar mass of the structure shown. Read-outs that look alike come from different tables or passages of the source.

Legend:
[1] = tested on: C. neoformans growth versus IL-2 in murine T cells; test: Therapeutic index score (immunosuppressive fold change to antifungal fold change relative to FK506); parameters: species or system Cryptococcus neoformans; mouse; conditions: Example 3; C. neoformans H99, FK506 = 1.0
From the text: To assess the therapeutic potential for these compounds, it was important to develop an approach to score and rank them based on antifungal and immunosuppressive activities. The therapeutic index score (TIscore) is a ratio of the immunosuppressive fold change to the antifungal fold change, with all values relative to the baseline FK506 activity (FIG. 6B). A TIscore of >1.0 indicates an increase in fungal specificity because the fold change of the immunosuppressive reduction is greater than the antifungal activity reduction. As an example, JH-FK-05 is 20-fold reduced for antifungal activity but about 180-fold reduced for immunosuppression. Therefore, the TIscore of JH-FK-05 is 9.1 (TIscore=182/20). The top two analogs were JH-FK-02 (TIscore=9.7) and JH-FK-05 (TIscore=9.1). Due to the similar TIscore, JH-FK-05 was prioritized to advance to animal trials on the merit of more pronounced antifungal activity compared to JH-FK-02.
Based on the in vitro fungal and mammalian calcineurin inhibition data, the panel of FK520 analogs was assessed and ranked. Therapeutic index (TI) scores were used to quantify the effects of structural modification on the compounds (Table 8). Therapeutic index scores were calculated for each analog as the ratio of relative change in immunosuppressive and antifungal activities compared to FK506 as previously utilized (see, I-Toy M J, et at. 2022. mBio 13:e0104922). This ratio of therapeutic benefit and host toxicity, or fungal and mammalian calcineurin inhibition, allowed us to quantify and rank these analogs. […] This is the greatest TI found within the library and allowed us to identify JH-FK-08 as a lead candidate for an in vivo study. Tolerability of JH-FK-08 was assessed by monitoring animal responses to drug dosing across 14 days, including changes in weight, fur condition, and behavior. A maximum dose of 40 mg/kg was tested in once a day dosing, and due to solubility limitations, the tolerability of JH-FK-08 at 60 and 80 mg/kg total daily doses was assessed by dosing two equal doses per day (FIG. 14). […] It should be noted that analogs JH-FK-12 and JH-FK-23 are also promising candidates with respective Tis of 24.7 and 24.5.

[2] = tested on: IL-2 expression in primary mouse CD4+ T cells (mammalian calcineurin); test: In vitro immunosuppressive activity, IL-2 expression (Example 3); type: cell-based; conditions: 72 h
Experimental: Modifications at the C-22 position reduce inhibition of mammalian calcineurin signaling Mammalian calcineurin inhibition was then assessed and found to be reduced for these FK520 analogs. The inhibition of mammalian calcineurin was assessed by measuring the reduction of IL-2 expression from primary mouse CD4^+ T cells cultured in the presence of FK506, FK520, or an analog. Calcineurin activity is required for T cell activation and cytokine production, and IL-2 production serves as an effective measure of mammalian calcineurin activity. After culturing mouse CD4′ T cells for 72 h, IL-2 expression was analyzed by flow cytometry to evaluate the immunosuppressive activity of the analogs. […] However, compound concentrations that permit high IL-2 expression are less likely to result in cell death.
Spleen and lymph nodes from C57BL/6 mice were collected and homogenized through a 40-μm filter. Pan-CD4^+ T cells were enriched using the MagniSort Mouse CD4 T Cell Enrichment Kit (Invitrogen). Thereafter, CD4^+CD25^−CD62L^hiCD44^lo naïve CD4^+ T cells were FACS-sorted using a MoFlo Astrios cell sorter (Beckman Coulter). Naïve CD4^+ T cells were cultured in Iscove's Modified Dulbecco's Medium supplemented with 10% fetal bovine serum (FBS), penicillin (10 U/mL), streptomycin (10 μg/mL), glutamine (2 mM), gentamicin (50 μg/mL), and β-mercaptoethanol (55 μM). Cells were cultured for 72 h on anti-hamster IgG-coated plates with hamster anti-CD3s antibodies, hamster anti-CD28 antibodies, neutralizing anti-IL-4 antibodies, recombinant IL-12 (10 ng/mL), and recombinant IL-2 (50 U/mL). During this culture, cells were incubated with serially diluted drugs suspended in DMSO.

[3] = tested on: Aspergillus fumigatus; test: MEC assay (Example 3); conditions: strain akuB^Ku80
[4] = tested on: Candida albicans; test: MIC assay (Example 3); type: cell-based; conditions: Candida albicans
Experimental: (§1) In vitro antifungal activity was assessed for all fungal strains in RPMI 1640 (Sigma-Aldrich R1383). MICs were measured using Clinical and Laboratory Standards Institute (CLSI) M38-A2 and M27-A3 standard in vitro antifungal susceptibility protocols. C. neoformans and A. fumigatus testing was performed at 37° C. MECs for A. fumigatus were recorded after 48 h of growth. C. albicans testing was performed at 30° C. with a uniform concentration of 2 μg/mL of fluconazole to sensitize the cells to calcineurin inhibition.
(§2) C. neoformans clinical isolate H99 and congenic-derived strain KN99α were used (see, Nielsen K, et al., 2003. Infect Immun 71:4831-4841). KN99α-derived frr1Δ deletion mutants with nourseothricin resistance markers as part of the Madhani deletion collection (NIH funding R01AI100272) were used. C. deneoformans strains used include JEC21 and derived C21F2 (CNB1-1) and C21F3 (frr1-3) strains (see, Odom A, et al., 1997. EMBO J 16:2576-2589; Moore T D, Edman J C. 1993. Mol Cell Biol 13:1962-1970; Fox D S, et al., 2001. Mol Microbiol 39:835-849). C. albicans strain SC5314 is the wild-type strain from which mutants YAG171 (rbp1/rbp1) and YAG237 (CNB1-1/CNB1) were derived (see, Cruz M C, et al., 2001. Antimicrob Agents Chemother 45:3162-3170). A. fumigatus strain akuB^Ku80 and a derived FKBP12 mutant fkbp12A were used during antifungal screening (see, Falloon K, et al., 2015. PLoS One 10:e0137869).

[5] = tested on: Cryptococcus neoformans; test: MIC assay (Example 3); type: cell-based; conditions: Cryptococcus neoformans
Experimental: as §1, §2

[6] = SC5314, MIC80, 30° C. with 2 μg/mL fluconazole, read-out: MIC against Candida albicans (SC5314)
[7] = MIC90, 37° C., read-out: MIC against Cryptococcus neoformans (H99)
[8] = SC5314, read-out: MIC against Candida albicans (SC5314)
[9] = read-out: MIC against Cryptococcus neoformans (H99)

SMILES	Therapeutic index [1]	IC50 [2] [nM]	MEC against Aspergillus fumigatus (akuB^Ku80) [3] [µg/mL]	MIC [4, 6] [µg/mL]	MIC [5, 7] [µg/mL]	MIC ([5]; Table 8, read-out: H99 MIC90) [µg/mL]	MIC [4, 8] [µg/mL]	MIC [5, 9] [µg/mL]
CC[C@@H]1/C=C(\C)C[C@H](C)C[C@H](OC)[C@H]2O[C@@](O)(C(=O)C(=O)N3CCCC[C@H]3C(=O)O[C@H](/C(C)=C/C3CC[C@@H](O)[C@H](OC)C3)[C@H](C)[C@@H](O)C/C1=N/NC(=O)c1ccncc1)[C@H](C)C[C@@H]2OC (stereo partly drawn) [JH-FK-09]	7.8	11.2	1.3	0.8 (≈ 0.878 µM)	0.8 (≈ 0.878 µM)	0.8 (≈ 0.878 µM)		
CC[C@@H]1/C=C(\C)C[C@H](C)C[C@H](OC)[C@H]2O[C@@](O)(C(=O)C(=O)N3CCCC[C@H]3C(=O)O[C@H](/C(C)=C/C3CC[C@@H](O)[C@H](OC)C3)[C@H](C)[C@@H](O)C/C1=N/NC(N)=O)[C@H](C)C[C@@H]2OC (stereo partly drawn) [JH-FK-12]	24.7	35.6	2.5	0.8 (≈ 0.942 µM)	0.8 (≈ 0.942 µM)	0.8 (≈ 0.942 µM)		
CC[C@@H]1/C=C(\C)C[C@H](C)C[C@H](OC)[C@H]2O[C@@](O)(C(=O)C(=O)N3CCCC[C@H]3C(=O)O[C@H](/C(C)=C/[C@@H]3CC[C@@H](O)[C@H](OC)C3)[C@H](C)[C@@H](O)CC1=NNS(=O)(=O)c1ccc(C)cc1)[C@H](C)C[C@@H]2OC [JH-FK-13]			>10				> 50	> 50
CC[C@@H]1/C=C(\C)C[C@H](C)C[C@H](OC)[C@H]2O[C@@](O)(C(=O)C(=O)N3CCCC[C@H]3C(=O)O[C@H](/C(C)=C/C3CC[C@@H](O)[C@H](OC)C3)[C@H](C)[C@@H](O)C/C1=N/NC(=O)c1cccc(C(=O)NN)c1)[C@H](C)C[C@@H]2OC (stereo partly drawn) [JH-FK-14]	4.9	14	0.6	0.8 (≈ 0.826 µM)	1.6 (≈ 1.65 µM)	1.6 (≈ 1.65 µM)		
CCN/N=C1/C[C@H](O)[C@@H](C)[C@@H](/C(C)=C/C2CC[C@@H](O)[C@H](OC)C2)OC(=O)[C@@H]2CCCCN2C(=O)C(=O)[C@]2(O)O[C@H]([C@@H](OC)C[C@@H](C)C/C(C)=C/[C@H]1CC)[C@@H](OC)C[C@H]2C (stereo partly drawn) [JH-FK-16]	8.2	5.9				0.4 (≈ 0.48 µM)		
CCNN=C1C[C@H](O)[C@@H](C)[C@@H](/C(C)=C/[C@@H]2CC[C@@H](O)[C@H](OC)C2)OC(=O)[C@@H]2CCCCN2C(=O)C(=O)[C@]2(O)O[C@H]([C@@H](OC)C[C@@H](C)C/C(C)=C/[C@H]1CC)[C@@H](OC)C[C@H]2C [JH-FK-16]			1.3				0.4 (≈ 0.48 µM)	0.4 (≈ 0.48 µM)
CC[C@@H]1/C=C(\C)C[C@H](C)C[C@H](OC)[C@H]2O[C@@](O)(C(=O)C(=O)N3CCCC[C@H]3C(=O)O[C@H](/C(C)=C/C3CC[C@@H](O)[C@H](OC)C3)[C@H](C)[C@@H](O)C/C1=N/NC(=O)c1ccc(N)cc1)[C@H](C)C[C@@H]2OC (stereo partly drawn) [JH-FK-20]	12.3	17.8	0.6	0.8 (≈ 0.865 µM)	0.8 (≈ 0.865 µM)	0.8 (≈ 0.865 µM)		
CC[C@@H]1/C=C(\C)C[C@H](C)C[C@H](OC)[C@H]2O[C@@](O)(C(=O)C(=O)N3CCCC[C@H]3C(=O)O[C@H](/C(C)=C/C3CC[C@@H](O)[C@H](OC)C3)[C@H](C)[C@@H](O)C/C1=N/NC(=O)NN)[C@H](C)C[C@@H]2OC (stereo partly drawn) [JH-FK-21]	18.9	54.5				1.6 (≈ 1.85 µM)		
CC[C@@H]1/C=C(\C)C[C@H](C)C[C@H](OC)[C@H]2O[C@@](O)(C(=O)C(=O)N3CCCC[C@H]3C(=O)O[C@H](/C(C)=C/[C@@H]3CC[C@@H](O)[C@H](OC)C3)[C@H](C)[C@@H](O)CC1=NNC(=O)NN)[C@H](C)C[C@@H]2OC [JH-FK-21]			2.5				0.8 (≈ 0.926 µM)	1.6 (≈ 1.85 µM)
CC[C@@H]1/C=C(\C)C[C@H](C)C[C@H](OC)[C@H]2O[C@@](O)(C(=O)C(=O)N3CCCC[C@H]3C(=O)O[C@H](/C(C)=C/C3CC[C@@H](O)[C@H](OC)C3)[C@H](C)[C@@H](O)C/C1=N/NC(=O)CO)[C@H](C)C[C@@H]2OC (stereo partly drawn) [JH-FK-22]	15.6	45				1.6 (≈ 1.85 µM)		
CC[C@@H]1/C=C(\C)C[C@H](C)C[C@H](OC)[C@H]2O[C@@](O)(C(=O)C(=O)N3CCCC[C@H]3C(=O)O[C@H](/C(C)=C/[C@@H]3CC[C@@H](O)[C@H](OC)C3)[C@H](C)[C@@H](O)CC1=NNC(=O)CO)[C@H](C)C[C@@H]2OC [JH-FK-22]			2.5				1.6 (≈ 1.85 µM)	1.6 (≈ 1.85 µM)
CC[C@@H]1/C=C(\C)C[C@H](C)C[C@H](OC)[C@H]2O[C@@](O)(C(=O)C(=O)N3CCCC[C@H]3C(=O)O[C@H](/C(C)=C/C3CC[C@@H](O)[C@H](OC)C3)[C@H](C)[C@@H](O)C/C1=N/NS(C)(=O)=O)[C@H](C)C[C@@H]2OC (stereo partly drawn) [JH-FK-23]	24.5	70.5	5	1.6 (≈ 1.81 µM)	1.6 (≈ 1.81 µM)	1.6 (≈ 1.81 µM)		
